Measured values taken from patent US20090137572A1, “2-substituted-4-heteroaryl-pyrimidines useful for the treatment of proliferative disorders” (priority 2004, published 2009).

Key:
Format in all cases: biochemical
[1] = biological target: T1, Aurora A kinase (Homo sapiens, UniProt O14965); assay: Aurora-A (human) kinase assay (Kemptide substrate); conditions: pIC50 is -log(IC50, M); 15 μM ATP; read-out: Kinase Inhibition pIC50 Aurora A kinase (converted)
T1 construct: purchased
T1 sequence (O14965 1-403): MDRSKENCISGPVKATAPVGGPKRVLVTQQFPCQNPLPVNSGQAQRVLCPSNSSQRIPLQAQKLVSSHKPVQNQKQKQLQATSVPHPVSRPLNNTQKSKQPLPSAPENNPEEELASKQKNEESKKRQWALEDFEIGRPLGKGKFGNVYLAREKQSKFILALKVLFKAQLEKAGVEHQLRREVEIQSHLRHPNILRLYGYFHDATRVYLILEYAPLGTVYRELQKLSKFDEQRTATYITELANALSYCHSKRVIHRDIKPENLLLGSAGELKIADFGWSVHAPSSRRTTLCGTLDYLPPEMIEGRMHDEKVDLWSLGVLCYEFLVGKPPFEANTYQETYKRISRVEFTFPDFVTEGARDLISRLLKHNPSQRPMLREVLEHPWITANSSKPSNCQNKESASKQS
Outline: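 Radiometric filter-binding assay: commercial aurora-A kinase (5-10 ng) with 200 μM Kemptide in MOPS/EDTA pH 7.0, started with 10 mM Mg acetate and 15 μM ATP plus [γ-33P]-ATP. Incubated 40 min at room temperature, stopped with phosphoric acid, incorporated 33P counted by scintillation.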

[2] = biological target: CDK2-cyclin A (Homo sapiens, UniProt P24941); assay: Kinase assay (radioactive phosphate incorporation), CDK2-cyclin A; conditions: read-out: Kinase Inhibition pIC50 CDK2-cyclin A (converted)
Experimental: (§1) Kinase assays. The compounds of the invention above were investigated for their ability to inhibit the enzymatic activity of various protein kinases (Table 2). This was achieved by measurement of incorporation of radioactive phosphate from ATP into appropriate polypeptide substrates. Recombinant protein kinases and kinase complexes were produced or obtained commercially. Assays were performed using 96-well plates and appropriate assay buffers (typically 25 mM β-glycerophosphate, 20 mM MOPS, 5 mM EGTA, 1 mM DTT, 1 mM […], pH 7.4), into which were added 2-4 μg of active enzyme with appropriate substrates. The reactions were initiated by addition of Mg/ATP mix (15 mM MgCl2+100 μM ATP with 30-50 kBq per well of [γ-^32P]-ATP) and mixtures incubated as required at 30° C. Reactions were stopped on ice, followed by filtration through p81 filterplates or GF/C filterplates (Whatman Polyfiltronics, Kent, UK). After washing 3 times with 75 mM aq orthophosphoric acid, plates were dried, scintillant added and incorporated radioactivity measured in a scintillation counter (TopCount, Packard Instruments, Pangbourne, Berks, UK). Compounds for kinase assay were made up as 10 mM stocks in DMSO and diluted into 10% DMSO in assay buffer.

[3] = biological target: CDK2-cycline E (Homo sapiens, UniProt P24941); assay: Kinase assay (radioactive phosphate incorporation), CDK2-cyclin E; conditions: read-out: Kinase Inhibition pIC50 CDK2-cycline E (converted)
Outline: (§2)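 Recombinant kinases (2-4 μg) with polypeptide substrates in pH 7.4 MOPS/β-glycerophosphate buffer. Reactions started with 15 mM MgCl2 + 100 μM ATP containing [γ-32P]-ATP and incubated at 30° C. Filter-bound incorporated radioactivity counted by scintillation; compounds diluted from DMSO stocks into 10% DMSO buffer.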

[4] = biological target: CDK9/cyclin T1 (Homo sapiens, UniProt P50750); assay: CDK 9 assay (CTD peptide substrate); conditions: read-out: Kinase Inhibition pIC50 CDK9-cyclin T1 (converted)
Outline: (§3)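 Radiometric assay: recombinant human CDK9/cyclin T1 or CDK7/cyclin H with biotinylated CTD heptapeptide-repeat substrate, 100 μM ATP with [γ-32P]ATP, 15 mM MgCl2, MOPS pH 7.2, 45 min at 30 °C. Avidin-captured substrate filtered onto P81; 32P incorporation counted by scintillation.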

[5] = biological target: CDK1-cyclin B (Homo sapiens, UniProt P06493); assay: Kinase assay (radioactive phosphate incorporation), CDK1-cyclin B; conditions: read-out: Kinase Inhibition pIC50 CDK1-cyclin B (converted)
Experimental: as §1

[6] = biological target: T2, Flt3 (FMS-like tyrosine kinase-3) (Homo sapiens, UniProt P36888); assay: Kinase assay (radioactive phosphate incorporation), Flt3; conditions: pIC50 is -log(IC50, M), read-out: Kinase Inhibition pIC50 Flt3 (converted)
T2 sequence (P36888 27-993): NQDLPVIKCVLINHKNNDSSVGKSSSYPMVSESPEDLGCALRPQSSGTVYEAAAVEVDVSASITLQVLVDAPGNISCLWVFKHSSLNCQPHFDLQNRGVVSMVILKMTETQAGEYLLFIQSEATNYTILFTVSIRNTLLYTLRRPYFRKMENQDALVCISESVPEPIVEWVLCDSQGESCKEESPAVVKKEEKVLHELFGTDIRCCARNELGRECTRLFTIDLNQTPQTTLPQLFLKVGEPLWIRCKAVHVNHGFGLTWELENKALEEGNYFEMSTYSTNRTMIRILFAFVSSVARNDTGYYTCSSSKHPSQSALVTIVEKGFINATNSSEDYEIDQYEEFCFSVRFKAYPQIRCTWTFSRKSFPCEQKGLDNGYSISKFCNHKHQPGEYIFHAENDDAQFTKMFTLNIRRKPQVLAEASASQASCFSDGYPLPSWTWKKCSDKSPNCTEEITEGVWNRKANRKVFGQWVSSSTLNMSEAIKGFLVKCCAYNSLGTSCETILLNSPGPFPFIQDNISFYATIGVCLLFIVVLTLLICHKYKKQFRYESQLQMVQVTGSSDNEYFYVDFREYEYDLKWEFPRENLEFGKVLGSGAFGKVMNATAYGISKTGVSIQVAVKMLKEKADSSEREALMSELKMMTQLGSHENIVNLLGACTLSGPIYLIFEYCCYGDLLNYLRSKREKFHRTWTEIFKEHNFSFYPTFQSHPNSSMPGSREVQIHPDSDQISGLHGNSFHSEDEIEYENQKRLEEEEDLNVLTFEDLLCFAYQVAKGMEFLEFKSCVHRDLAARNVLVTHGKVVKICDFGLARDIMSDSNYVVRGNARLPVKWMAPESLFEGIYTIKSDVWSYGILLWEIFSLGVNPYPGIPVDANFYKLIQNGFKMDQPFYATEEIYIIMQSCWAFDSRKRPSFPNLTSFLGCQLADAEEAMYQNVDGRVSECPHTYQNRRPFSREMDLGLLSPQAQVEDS
Outline: as §2

[7] = biological target: CDK7/cyclin H (Homo sapiens, UniProt P50613); assay: CDK 7 assay (CTD peptide substrate); conditions: read-out: Kinase Inhibition pIC50 CDK7-cyclin H (converted)
Outline: as §3

[8] = biological target: CDK4-cyclin D1 (Homo sapiens, UniProt P11802); assay: Kinase assay (radioactive phosphate incorporation), CDK4-cyclin D1; conditions: read-out: Kinase Inhibition pIC50 CDK4-cyclin D1 (converted)
Experimental: as §1

[9] = biological target: GSK3b (Homo sapiens, UniProt P49841); assay: Kinase assay (radioactive phosphate incorporation), GSK-3b; conditions: read-out: Kinase Inhibition pIC50 GSK-3b (converted)
Experimental: as §1

Sequence of CDK4-cyclin D1 (P11802 whole entry): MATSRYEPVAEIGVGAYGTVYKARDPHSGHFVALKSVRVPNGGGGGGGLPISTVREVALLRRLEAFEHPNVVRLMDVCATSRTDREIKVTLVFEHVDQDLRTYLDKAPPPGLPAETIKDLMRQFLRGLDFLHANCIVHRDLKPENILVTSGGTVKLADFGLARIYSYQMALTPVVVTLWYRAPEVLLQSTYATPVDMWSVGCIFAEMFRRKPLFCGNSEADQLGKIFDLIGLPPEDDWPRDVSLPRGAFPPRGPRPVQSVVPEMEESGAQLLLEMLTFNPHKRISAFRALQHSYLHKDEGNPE
Sequence of CDK4-cyclin D1 (P24385 whole entry partner): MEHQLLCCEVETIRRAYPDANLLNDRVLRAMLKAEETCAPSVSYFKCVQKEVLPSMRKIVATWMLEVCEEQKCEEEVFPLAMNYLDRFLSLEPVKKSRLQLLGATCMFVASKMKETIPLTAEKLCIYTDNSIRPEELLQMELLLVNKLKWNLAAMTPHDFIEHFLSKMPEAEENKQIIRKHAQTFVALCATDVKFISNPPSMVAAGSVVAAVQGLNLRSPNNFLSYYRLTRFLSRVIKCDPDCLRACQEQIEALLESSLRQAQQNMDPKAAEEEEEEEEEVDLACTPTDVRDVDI
Sequence of CDK9/cyclin T1 (P50750 whole entry): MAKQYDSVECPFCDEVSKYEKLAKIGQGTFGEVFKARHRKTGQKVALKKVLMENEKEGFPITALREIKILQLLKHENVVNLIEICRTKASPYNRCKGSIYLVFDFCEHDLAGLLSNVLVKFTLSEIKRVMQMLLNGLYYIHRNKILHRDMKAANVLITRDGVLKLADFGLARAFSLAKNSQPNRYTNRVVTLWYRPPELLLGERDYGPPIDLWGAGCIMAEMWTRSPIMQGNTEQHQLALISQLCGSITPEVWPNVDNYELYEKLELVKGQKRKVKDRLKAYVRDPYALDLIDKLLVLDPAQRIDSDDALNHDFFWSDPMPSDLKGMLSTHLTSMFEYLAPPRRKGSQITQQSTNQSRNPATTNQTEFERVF
Sequence of CDK9/cyclin T1 (O60563 whole entry partner): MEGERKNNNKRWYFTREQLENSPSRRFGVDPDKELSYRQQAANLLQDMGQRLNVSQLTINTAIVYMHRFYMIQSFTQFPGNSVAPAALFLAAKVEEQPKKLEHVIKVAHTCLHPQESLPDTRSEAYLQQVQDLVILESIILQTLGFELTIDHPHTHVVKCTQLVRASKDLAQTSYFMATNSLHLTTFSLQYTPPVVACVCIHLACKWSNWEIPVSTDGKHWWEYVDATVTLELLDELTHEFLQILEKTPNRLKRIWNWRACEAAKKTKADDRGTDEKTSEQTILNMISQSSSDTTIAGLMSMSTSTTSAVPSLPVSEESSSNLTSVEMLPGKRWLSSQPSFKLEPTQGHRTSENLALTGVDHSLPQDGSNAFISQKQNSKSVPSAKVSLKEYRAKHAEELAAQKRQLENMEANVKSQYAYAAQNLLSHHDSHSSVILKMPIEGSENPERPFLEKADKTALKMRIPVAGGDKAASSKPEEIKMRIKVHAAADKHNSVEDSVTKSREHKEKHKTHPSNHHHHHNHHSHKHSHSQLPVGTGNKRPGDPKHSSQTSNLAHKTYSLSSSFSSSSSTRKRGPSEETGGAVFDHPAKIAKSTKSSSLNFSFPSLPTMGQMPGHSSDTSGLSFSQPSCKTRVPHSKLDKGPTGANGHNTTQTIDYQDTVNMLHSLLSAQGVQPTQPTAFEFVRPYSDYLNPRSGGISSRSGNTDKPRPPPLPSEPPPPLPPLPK
Sequence of CDK7/cyclin H (P50613 whole entry): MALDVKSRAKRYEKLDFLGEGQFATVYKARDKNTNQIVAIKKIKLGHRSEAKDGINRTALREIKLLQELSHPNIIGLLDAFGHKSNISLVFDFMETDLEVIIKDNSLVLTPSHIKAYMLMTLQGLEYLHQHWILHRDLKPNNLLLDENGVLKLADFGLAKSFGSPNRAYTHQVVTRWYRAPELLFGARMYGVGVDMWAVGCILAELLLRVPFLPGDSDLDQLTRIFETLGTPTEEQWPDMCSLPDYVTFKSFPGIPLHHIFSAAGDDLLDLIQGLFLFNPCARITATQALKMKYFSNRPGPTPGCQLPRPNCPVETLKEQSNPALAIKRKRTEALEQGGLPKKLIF
Sequence of CDK7/cyclin H (P51946 whole entry partner): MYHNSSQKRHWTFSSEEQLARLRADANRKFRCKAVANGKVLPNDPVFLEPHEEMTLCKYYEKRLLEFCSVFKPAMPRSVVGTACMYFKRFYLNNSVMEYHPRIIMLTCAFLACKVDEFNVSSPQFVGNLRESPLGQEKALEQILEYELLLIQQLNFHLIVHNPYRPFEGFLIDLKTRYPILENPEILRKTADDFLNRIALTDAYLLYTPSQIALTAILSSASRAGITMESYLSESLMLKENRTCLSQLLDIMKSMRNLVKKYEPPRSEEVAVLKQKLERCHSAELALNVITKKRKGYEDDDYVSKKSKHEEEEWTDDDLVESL
Sequence of CDK1-cyclin B (P06493 whole entry): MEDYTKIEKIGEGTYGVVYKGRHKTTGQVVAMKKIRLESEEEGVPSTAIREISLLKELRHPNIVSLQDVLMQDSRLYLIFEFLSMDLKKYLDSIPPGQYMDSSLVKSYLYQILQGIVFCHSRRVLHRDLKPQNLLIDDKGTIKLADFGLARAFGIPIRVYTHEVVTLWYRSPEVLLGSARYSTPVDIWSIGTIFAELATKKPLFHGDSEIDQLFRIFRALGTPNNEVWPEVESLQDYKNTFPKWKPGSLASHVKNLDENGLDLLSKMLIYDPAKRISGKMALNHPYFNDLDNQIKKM
Sequence of CDK1-cyclin B (P14635 whole entry partner): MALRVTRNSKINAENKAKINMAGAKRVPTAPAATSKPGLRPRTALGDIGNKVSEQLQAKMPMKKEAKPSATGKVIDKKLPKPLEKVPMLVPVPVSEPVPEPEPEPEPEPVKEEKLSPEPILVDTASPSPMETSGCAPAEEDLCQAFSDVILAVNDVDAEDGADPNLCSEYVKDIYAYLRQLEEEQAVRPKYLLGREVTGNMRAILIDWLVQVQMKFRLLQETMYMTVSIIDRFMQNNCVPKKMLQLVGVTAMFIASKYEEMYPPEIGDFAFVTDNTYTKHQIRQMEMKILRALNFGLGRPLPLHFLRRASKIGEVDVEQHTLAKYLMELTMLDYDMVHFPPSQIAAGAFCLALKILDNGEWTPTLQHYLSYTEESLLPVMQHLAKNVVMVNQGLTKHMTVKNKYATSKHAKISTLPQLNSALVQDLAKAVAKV
Sequence of GSK3b (P49841 whole entry, species assumed): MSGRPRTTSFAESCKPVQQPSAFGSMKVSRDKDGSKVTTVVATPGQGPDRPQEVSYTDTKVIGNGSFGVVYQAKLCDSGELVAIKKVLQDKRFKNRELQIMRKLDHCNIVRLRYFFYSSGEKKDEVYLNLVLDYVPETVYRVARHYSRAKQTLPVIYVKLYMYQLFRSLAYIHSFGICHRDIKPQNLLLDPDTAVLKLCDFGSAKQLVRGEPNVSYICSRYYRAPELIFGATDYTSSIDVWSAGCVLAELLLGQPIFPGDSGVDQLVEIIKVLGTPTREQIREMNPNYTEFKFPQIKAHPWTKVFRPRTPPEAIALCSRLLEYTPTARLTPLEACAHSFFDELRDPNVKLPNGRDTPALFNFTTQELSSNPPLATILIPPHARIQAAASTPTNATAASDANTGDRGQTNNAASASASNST

IC50 [1] | IC50 [2] | IC50 [3] | IC50 [4] | IC50 [5] | IC50 [6] | IC50 [7] | IC50 [8] | IC50 [9] | SMILES
126 nM | 398 nM | 100 nM | 7.94 nM | 1000 nM | 50.1 nM | 126 nM | 200 nM |  | Cc1nc(N)sc1-c1ccnc(Nc2cccc(CNS(C)(=O)=O)c2)n1 [Compound 6, N-{3-[4-(2-Amino-4-methyl-thiazol-5-yl)-pyrimidin-2-ylamino]-benzyl}-methanesulfonamide]
200 nM | 2510 nM | 398 nM | 200 nM | 3160 nM | 12.6 nM | 631 nM | 1000 nM |  | CNc1nc(C)c(-c2ccnc(Nc3cccc(N4CCNCC4)c3)n2)s1 [Compound 7, [4-(4-Methyl-2-methylamino-thiazol-5-yl)-pyrimidin-2-yl]-(3-piperazin-1-yl-phenyl)-amine]
15.8 nM | 126 nM |  | 25.1 nM | 631 nM | 31.6 nM | 200 nM | 63.1 nM |  | CCNc1nc(C)c(-c2ccnc(Nc3ccc(CNC(C)=O)cc3)n2)s1 [Compound 13, N-{4-[4-(2-Ethylamino-4-methyl-thiazol-5-yl)-pyrimidin-2-ylamino]-benzyl}-acetamide]
 | 2000 nM |  | 251 nM | 2000 nM | 63.1 nM | 3160 nM | 2000 nM |  | CNc1nc(C)c(-c2ccnc(Nc3cccc(CC(=O)OCCOC)c3)n2)s1 [Compound 44, {3-[4-(4-Methyl-2-methylamino-thiazol-5-yl)-pyrimidin-2-ylamino]-phenyl}-acetic acid 2-methoxy-ethyl ester]
50.1 nM | 631 nM | 251 nM |  | 631 nM | 63.1 nM |  | 631 nM |  | CNc1nc(C)c(-c2ccnc(Nc3cc(CO)cc(CO)c3)n2)s1 [Compound 48, {3-Hydroxymethyl-5-[4-(4-methyl-2-methylamino-thiazol-5-yl)-pyrimidin-2-ylamino]-phenyl}-methanol]
5.01 nM | 158 nM | 25.1 nM | 316 nM | 200 nM | 200 nM |  | 1000 nM |  | Cc1nc(C)c(-c2ccnc(Nc3cccc(CNS(C)(=O)=O)c3)n2)s1 [Compound 49, N-{3-[4-(2,4-Dimethyl-thiazol-5-yl)-pyrimidin-2-ylamino]-benzyl}-methanesulfonamide]
 | 1000 nM | 631 nM |  | 5010 nM |  |  | 251 nM |  | CCNc1nc(C)c(-c2ccnc(Nc3ccc(N4CCN(C(C)=O)CC4)cc3)n2)s1 [Compound 58, 1-(4-{4-[4-(2-Ethylamino-4-methyl-thiazol-5-yl)-pyrimidin-2-ylamino]-phenyl}-piperazin-1-yl)-ethanone]
 | 3160 nM | 79.4 nM | 6310 nM |  |  |  |  |  | CCOC(=O)Cc1cccc(NS(=O)(=O)c2ccc(Nc3nccc(-c4sc(NC)nc4C)n3)cc2)c1 [Compound 62, (3-{4-[4-(4-Methyl-2-methylamino-thiazol-5-yl)-pyrimidin-2-ylamino]-benzenesulfonylamino}-phenyl)-acetic acid ethyl ester]
316 nM | 50.1 nM | 63.1 nM |  |  |  |  |  |  | CCNS(=O)(=O)c1ccc(Nc2nccc(-c3sc(C)nc3C)n2)cc1 [Compound 66, 4-[4-(2,4-Dimethyl-thiazol-5-yl)-pyrimidin-2-ylamino]-N-ethyl-benzenesulfonamide]
 | 3160 nM | 631 nM | 398 nM |  |  |  | 7940 nM |  | CCNc1nc(C)c(-c2ccnc(Nc3ccc(S(=O)(=O)NCc4ccccc4)cc3)n2)s1 [Compound 71, N-Benzyl-4-[4-(2-ethylamino-4-methyl-thiazol-5-yl)-pyrimidin-2-ylamino]-benzenesulfonamide]
2510 nM | 1260 nM | 158 nM | 6310 nM | 794 nM |  |  |  |  | CNc1nc(C)c(-c2ccnc(Nc3ccc(S(=O)(=O)NCc4ccccc4)cc3)n2)s1 [Compound 72, N-Benzyl-4-[4-(4-methyl-2-methylamino-thiazol-5-yl)-pyrimidin-2-ylamino]-benzenesulfonamide]
316 nM | 39.8 nM | 12.6 nM | 158 nM | 100 nM |  | 1000 nM |  |  | Cc1nc(N)sc1-c1ccnc(Nc2ccc(S(=O)(=O)NCc3ccccc3)cc2)n1 [Compound 73, 4-[4-(2-Amino-4-methyl-thiazol-5-yl)-pyrimidin-2-ylamino]-N-benzyl-benzenesulfonamide]
126 nM | 2000 nM | 398 nM |  |  |  |  |  |  | Cc1nc(C)c(-c2ccnc(Nc3ccc(S(=O)(=O)NCc4ccccc4)cc3)n2)s1 [Compound 74, N-Benzyl-4-[4-(2,4-dimethyl-thiazol-5-yl)-pyrimidin-2-ylamino]-benzenesulfonamide]
126 nM |  | 1260 nM | 5010 nM | 3160 nM | 316 nM | 3980 nM | 3980 nM | 7940 nM | CC(=O)NCc1cccc(Nc2nccc(-c3sc(-c4cccnc4)nc3C)n2)c1 [Compound 101, N-{3-[4-(4-Methyl-2-pyridin-3-yl-thiazol-5-yl)-pyrimidin-2-ylamino]-benzyl}-acetamide]
